Assay results from patent US10206394B2, “Herbicidal compounds” (Syngenta Participations AG, priority 2014, dated 2019).
Read-outs that look alike come from different tables or passages of the source.

Tests used:
Test in all cases: Glasshouse assay for herbicidal activity (pre- and post-emergence), percentage phytotoxicity
Type in all cases: in vivo
[1] = tested on: Alopecurus myosuroides (ALOMY); details: Alopecurus myosuroides
Summary of the method: (§1)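 Pot-grown plants treated one day after sowing (pre-emergence) or at about 12 days (post-emergence); glasshouse at 24/18° C (warm) or 20/16° C (cool species) day/night, 16 h light, 65% humidity. Visual % phytotoxicity (0 = none, 100 = total damage) scored at 15 DAA post or 20 DAA pre.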

Avena fatua (AVEFA) = details: Avena fatua
Summary of the method: as §1

[2] = tested on: Echinochloa crus-galli (ECHCG); details: Echinochloa crus-galli
Summary of the method: as §1

Lolium perenne (LOLPE) = details: Lolium perenne
Summary of the method: as §1

[3] = post-emergence, 360 h, POST-emergence, rate 250 g/ha, visual score 15 DAA (100%=total damage, 0%=no damage), read-out: Post-emergence herbicidal activity (percentage phytotoxicity) ALOMY POST
[4] = pre-emergence, 480 h, PRE-emergence, rate 250 g/ha, visual score 20 DAA (100%=total damage, 0%=no damage), read-out: Pre-emergence herbicidal activity (percentage phytotoxicity) ALOMY PRE
[5] = post-emergence, 360 h, POST-emergence, rate 250 g/ha, visual score 15 DAA (100%=total damage, 0%=no damage), read-out: Post-emergence herbicidal activity (percentage phytotoxicity) AVEFA POST
[6] = pre-emergence, 480 h, PRE-emergence, rate 250 g/ha, visual score 20 DAA (100%=total damage, 0%=no damage), read-out: Pre-emergence herbicidal activity (percentage phytotoxicity) AVEFA PRE
[7] = post-emergence, 360 h, POST-emergence, rate 250 g/ha, visual score 15 DAA (100%=total damage, 0%=no damage), read-out: Post-emergence herbicidal activity (percentage phytotoxicity) ECHCG POST
[8] = pre-emergence, 480 h, PRE-emergence, rate 250 g/ha, visual score 20 DAA (100%=total damage, 0%=no damage), read-out: Pre-emergence herbicidal activity (percentage phytotoxicity) ECHCG PRE
[9] = post-emergence, 360 h, POST-emergence, rate 250 g/ha, visual score 15 DAA (100%=total damage, 0%=no damage), read-out: Post-emergence herbicidal activity (percentage phytotoxicity) LOLPE POST
[10] = pre-emergence, 480 h, PRE-emergence, rate 250 g/ha, visual score 20 DAA (100%=total damage, 0%=no damage), read-out: Pre-emergence herbicidal activity (percentage phytotoxicity) LOLPE PRE
[11] = post-emergence, 360 h, Rate 250 g/ha, post-emergence, assessed visually 15 DAA, 100%=total damage, 0%=no damage, read-out: Post-emergence herbicidal activity (percentage phytotoxicity) ALOMY POST
[12] = pre-emergence, 480 h, Rate 250 g/ha, pre-emergence, assessed visually 20 DAA, 100%=total damage, 0%=no damage, read-out: Pre-emergence herbicidal activity (percentage phytotoxicity) ALOMY PRE
[13] = post-emergence, 360 h, Rate 250 g/ha, post-emergence, assessed visually 15 DAA, 100%=total damage, 0%=no damage, read-out: Post-emergence herbicidal activity (percentage phytotoxicity) AVEFA POST
[14] = pre-emergence, 480 h, Rate 250 g/ha, pre-emergence, assessed visually 20 DAA, 100%=total damage, 0%=no damage, read-out: Pre-emergence herbicidal activity (percentage phytotoxicity) AVEFA PRE
[15] = post-emergence, 360 h, Rate 250 g/ha, post-emergence, assessed visually 15 DAA, 100%=total damage, 0%=no damage, read-out: Post-emergence herbicidal activity (percentage phytotoxicity) ECHCG POST
[16] = pre-emergence, 480 h, Rate 250 g/ha, pre-emergence, assessed visually 20 DAA, 100%=total damage, 0%=no damage, read-out: Pre-emergence herbicidal activity (percentage phytotoxicity) ECHCG PRE
[17] = post-emergence, 360 h, Rate 250 g/ha, post-emergence, assessed visually 15 DAA, 100%=total damage, 0%=no damage, read-out: Post-emergence herbicidal activity (percentage phytotoxicity) LOLPE POST
[18] = pre-emergence, 480 h, Rate 250 g/ha, pre-emergence, assessed visually 20 DAA, 100%=total damage, 0%=no damage, read-out: Pre-emergence herbicidal activity (percentage phytotoxicity) LOLPE PRE
[19] = post-emergence, 360 h, 250 g/ha, post-emergence, 15 DAA, visual assessment (100%=total damage, 0%=no damage), read-out: Post-emergence herbicidal activity (percentage phytotoxicity) ALOMY POST
[20] = pre-emergence, 480 h, 250 g/ha, pre-emergence, 20 DAA, visual assessment (100%=total damage, 0%=no damage), read-out: Pre-emergence herbicidal activity (percentage phytotoxicity) ALOMY PRE
[21] = post-emergence, 360 h, 250 g/ha, post-emergence, 15 DAA, visual assessment (100%=total damage, 0%=no damage), read-out: Post-emergence herbicidal activity (percentage phytotoxicity) AVEFA POST
[22] = pre-emergence, 480 h, 250 g/ha, pre-emergence, 20 DAA, visual assessment (100%=total damage, 0%=no damage), read-out: Pre-emergence herbicidal activity (percentage phytotoxicity) AVEFA PRE
[23] = post-emergence, 360 h, 250 g/ha, post-emergence, 15 DAA, visual assessment (100%=total damage, 0%=no damage), read-out: Post-emergence herbicidal activity (percentage phytotoxicity) ECHCG POST
[24] = pre-emergence, 480 h, 250 g/ha, pre-emergence, 20 DAA, visual assessment (100%=total damage, 0%=no damage), read-out: Pre-emergence herbicidal activity (percentage phytotoxicity) ECHCG PRE
[25] = post-emergence, 360 h, 250 g/ha, post-emergence, 15 DAA, visual assessment (100%=total damage, 0%=no damage), read-out: Post-emergence herbicidal activity (percentage phytotoxicity) LOLPE POST
[26] = pre-emergence, 480 h, 250 g/ha, pre-emergence, 20 DAA, visual assessment (100%=total damage, 0%=no damage), read-out: Pre-emergence herbicidal activity (percentage phytotoxicity) LOLPE PRE

Structure (SMILES)	pest or weed control at 250 g/ha [1, 3]	pest or weed control at 250 g/ha [1, 4]	pest or weed control at 250 g/ha (Avena fatua (AVEFA); [5])	pest or weed control at 250 g/ha (Avena fatua (AVEFA); [6])	pest or weed control at 250 g/ha [2, 7]	pest or weed control at 250 g/ha [2, 8]	pest or weed control at 250 g/ha (Lolium perenne (LOLPE); [9])	pest or weed control at 250 g/ha (Lolium perenne (LOLPE); [10])	pest or weed control at 250 g/ha [1, 11]	pest or weed control at 250 g/ha [1, 12]	pest or weed control at 250 g/ha (Avena fatua (AVEFA); [13])	pest or weed control at 250 g/ha (Avena fatua (AVEFA); [14])	pest or weed control at 250 g/ha [2, 15]	pest or weed control at 250 g/ha [2, 16]	pest or weed control at 250 g/ha (Lolium perenne (LOLPE); [17])	pest or weed control at 250 g/ha (Lolium perenne (LOLPE); [18])	other results
CCc1cc(OCC(F)(F)F)cc(C)c1C1C(=O)CC(CC(=O)NCc2cccc(Cl)c2)C1=O (stereo not shown) [Compound B261]	100%	80%	100%	80%	100%	90%	100%	90%									
Cc1cc(Br)cc(C)c1C1C(=O)CC(CC(=O)NCC2CC2(F)F)C1=O (stereo not shown) [Compound B198]	100%	90%	100%	60%	100%	80%	100%	70%									
Cc1cc(-n2cc(Cl)cn2)cc(C)c1C1C(=O)CC(CC(=O)NCC(C)C)C1=O (stereo not shown) [Compound A72]									90%	90%	90%	90%	90%	100%	80%	90%	
CC#Cc1cc(C)c(C2C(=O)CC(CC(=O)N(C)CCC)C2=O)c(C)c1 (stereo not shown) [Compound A61]									100%	100%	100%	90%	100%	100%	90%	100%	
Cc1cc(C)c(C2C(=O)CC(CC(=O)N3CCSCC3)C2=O)c(C)c1 (stereo not shown) [Compound A163]									30%	10%	30%	30%	70%	70%	60%	60%	
Cc1cc(-c2ncccc2F)cc(C)c1C1C(=O)CC(CC(=O)NC(C)(C)C)C1=O (stereo not shown) [Compound B84]																	pest or weed control at 250 g/ha [1, 19]: 100%; pest or weed control at 250 g/ha [1, 20]: 90%; pest or weed control at 250 g/ha (Avena fatua (AVEFA); [21]): 100%; pest or weed control at 250 g/ha (Avena fatua (AVEFA); [22]): 80%; pest or weed control at 250 g/ha [2, 23]: 100%; pest or weed control at 250 g/ha [2, 24]: 100%; pest or weed control at 250 g/ha (Lolium perenne (LOLPE); [25]): 100%; pest or weed control at 250 g/ha (Lolium perenne (LOLPE); [26]): 100%
C/C=C/c1cc(C)c(C2C(=O)CC(CC(=O)NCc3ccccc3)C2=O)c(CC)c1 (stereo not shown) [Compound B190]	70%	60%	90%	40%	100%	80%	80%	70%									
Cc1cc(-c2ncc(F)cc2F)cc(C)c1C1C(=O)CC(CC(=O)NCc2ccc(C(F)(F)F)cc2)C1=O (stereo not shown) [Compound B89]																	pest or weed control at 250 g/ha [1, 19]: 100%; pest or weed control at 250 g/ha [1, 20]: 90%; pest or weed control at 250 g/ha (Avena fatua (AVEFA); [21]): 100%; pest or weed control at 250 g/ha (Avena fatua (AVEFA); [22]): 60%; pest or weed control at 250 g/ha [2, 23]: 100%; pest or weed control at 250 g/ha [2, 24]: 100%; pest or weed control at 250 g/ha (Lolium perenne (LOLPE); [25]): 100%; pest or weed control at 250 g/ha (Lolium perenne (LOLPE); [26]): 90%
